Data as given in patent US7339026B2, “mda-9 protein” (The Trustees of Columbia University In the City of New York, priority 1996, dated 2008).

Columns and labels:
Assay type in all cases: cell-based, human
LO-1 = assay: Growth of cell line with IFN-β and MEZ, alone and in combination (Coulter Counter cell numbers); conditions: 96-h growth, IFN-β 2000 U/ml, MEZ 10 ng/ml, IFN-β + MEZ 2000 U/ml + 10 ng/ml
Experimental: (§1) Cell Lines and Culture Conditions. H0-1 is a melanotic melanoma cell line produced from a metastatic inguinal lymph node lesion from a person and was used between passages 150 and 175 (13,21,22). FM516-SV is a normal human melanocyte culture immortalized by the SV40 T-antigen gene (23). Additional melanoma cell lines established from patients with metastatic melanomas that were evaluated, include LO-1, SH-1, WM239, MeWo, SKMEL-p53 wt (containing a wild-type p53 gene) and SKMEL-p53 mut (containing a mutant p53 gene) (13,21,24). Cultures were grown at 37° C. in a 95% air 5% C02-humidified incubator in Dulbecco's modified Eagle's medium (DMEM) supplemented with 5 or 10% fetal bovine serum (Hyclone, Utah). Cultures were maintained in the logarithmic phase of growth by subculturing (1:5 or 1:10) prior to confluence approximately every 4 to 7 d. For determining steady-state RNA expression, cultures were seeded at 1.5×10^6 cells per 10-cm tissue culture plate, and 24 h later the medium was changed without inducers or with IFN-β (2000 U/ml), MEZ (10 ng/ml) or IFN-β+MEZ (2000 U/ml+10 ng/ml). Total cytoplasmic RNA was isolated at various time points and analyzed for mda-9 and GAPDH expression.

HO-1 = assay: as above; conditions: for Cell numbers (average of triplicate plates ± S.D.) / percent of control growth: HO-1, 96-h growth, IFN-β 2000 U/ml, MEZ 10 ng/ml, IFN-β + MEZ 2000 U/ml + 10 ng/ml
Experimental: as §1

WM239 = assay: as above; conditions: 96-h growth, IFN-β 2000 U/ml, MEZ 10 ng/ml, IFN-β + MEZ 2000 U/ml + 10 ng/ml
Experimental: as §1

SKMEL-p53 mut = assay: as above; conditions: 96-h growth, IFN-β 2000 U/ml, MEZ 10 ng/ml, IFN-β + MEZ 2000 U/ml + 10 ng/ml
Experimental: as §1

SKMEL-p53 wt = assay: as above; conditions: 96-h growth, IFN-β 2000 U/ml, MEZ 10 ng/ml, IFN-β + MEZ 2000 U/ml + 10 ng/ml
Experimental: as §1

FM516-SV [1] = assay: as above; conditions: 96-h growth, IFN-β 2000 U/ml, MEZ 10 ng/ml, IFN-β + MEZ 2000 U/ml + 10 ng/ml
Experimental: as §1

SH-1 = assay: as above; conditions: 96-h growth, IFN-β 2000 U/ml, MEZ 10 ng/ml, IFN-β + MEZ 2000 U/ml + 10 ng/ml
Experimental: as §1

MeWo = assay: as above; conditions: 96-h growth, IFN-β 2000 U/ml, MEZ 10 ng/ml, IFN-β + MEZ 2000 U/ml + 10 ng/ml
Experimental: as §1

[2] = tested on: mda-9 expression in H0-1 cells; assay: mda-9 RNA expression by Northern blotting, equalized to GAPDH
Experimental: FIG. 1. Temporal expression of mda-9 in H0-1 cells exposed to IFN-β+MEZ. RNAs were isolated from untreated and H0-1 cells treated with IFN-β+MEZ (2000 U/ml+10 ng/ml) for 0.25, 0.5, 1, 2, 4, 8, 12 and 24 h. Ten micrograms of total cellular RNA were separated on 1% agarose gel, transferred to nylon membranes, sequentially hybridized with an mda-9 and then a GAPDH probe, and then exposed to autoradiography.
FIG. 4. Effect of interferons on mda-9 expression in H0-1 cells. H0-1 cells were grown for 96 h in the absence or presence of IFN-α (100 and 1000 U/ml), IFN-β (100 and 1000 U/ml) or IFN-γ (100 U/ml) and RNA was analyzed as described in FIG. 1.
FIGS. 9A-9B. Temporal and dose kinetics of IFN-γ enhancement in mda-9 expression in H0-1 human melanoma cells. H0-1 cells were treated for the indicated time (FIG. 9A) and dose (FIG. 9B) of IFN-γ, RNA was then isolated and analyzed by Northern blotting. […] Replicate samples varied by ≦15%.
as §1
RNA Isolation, Northern Blotting and Southern Blotting of Genomic DNAs. Total cellular RNA was isolated by the guanidinium/phenol procedure and Northern blotting was performed as described (30-32). Ten μg of RNA were denatured with glyoxal/dimethyl sulfoxide (DMSO), electrophoresed on 1.0% agarose gels, transferred to nylon membranes and hybridized to a ^32P-labeled mda-9 probe and then after stripping the membranes were hybridized to a ^32P-labeled rat GAPDH probe (33) as described previously (30-32). […] RNA blots were quantitated by densitometric analysis using a Molecular Dynamics densitometer (Sunnyvale, Calif.) (34). […]

[3] = tested on: mda-9 expression in FM516-SV cells; assay: mda-9 RNA expression by Northern blotting, densitometer comparison with GAPDH
Experimental: FIG. 2. Effects of IFN-β+MEZ on mda-9 expression in human melanoma cells and an SV40-immortalized human melanocyte cell line. The indicated cell line was grown in the presence or absence of IFN-β+MEZ (2000 U/ml+10 ng/ml) for 96 h and RNA was analyzed as described in FIG. 1.
as §1, with “Cultures were maintained in the logarithmic phase of growth by subculturing (1:5 or 1:10) prior to confluence approximately every 4 to 7 d. For determining steady-state RNA expression, cultures were seeded at 1.5×10^6 cells per 10-cm tissue culture plate, and 24 h later the medium was changed without inducers or with IFN-β (2000 U/ml), MEZ (10 ng/ml) or IFN-β+MEZ (2000 U/ml+10 ng/ml).” left out
RNA Isolation, Northern Blotting and Southern Blotting of Genomic DNAs. […] RNA blots were quantitated by densitometric analysis using a Molecular Dynamics densitometer (Sunnyvale, Calif.) (34). […]

H0-1 = assay: Effect of recombinant immune interferon (IFN-γ) on growth (cell numbers); conditions: 96 hr
Description: (§2) Cell lines and culture conditions. H0-1 is a melanotic melanoma cell line produced from a metastatic inguinal node lesion from a person and was used between passages 170 and 200 (Giovanella et al., 1976; Huberman et al., 1979; Fisher et al., 1985). C8161 is a highly metastatic amelanotic human melanoma cell line derived from an abdominal wall metastasis (Welch et al., 1991). FM516-SV is a normal human melanocyte culture immortalized by the SV40 T-antigen gene (Melber et al., 1989). The WM35 cell line was isolated from a patient with a radial growth phase primary melanoma (Herlyn, 1990). The WM278 cell line is from a patient with an early vertical growth phase primary melanoma (Herlyn, 1990). Cultures were grown at 37° C. in a 95% air 5% C02-humidified incubator in Dulbecco's modified Eagle's medium (DMEM) supplemented with 5 or 10% fetal bovine serum. Cultures were maintained in the logarithmic phase of growth by subculturing (1:5 or 1:10) prior to confluence approximately every 4 to 7 D.

WM35 = assay: as above; conditions: 96 hr
Description: as §2

C8161 = assay: as above; conditions: 96 hr
Description: as §2

FM516-SV [4] = assay: as above; conditions: 96 hr
Description: as §2

WM278 = assay: as above; conditions: 96 hr
Description: as §2

H0-1 cells = assay: Effect of interferons on growth of H0-1 cells (FIG. 3); conditions: 4 d treatment with 100 U/ml interferon
Experimental: FIG. 3. […] Results are the average cell number ±S.D. from the mean.
Experiments were performed to determine if a relationship exists between growth suppression and reduced mda-9 expression. To test this connection, the effect of interferon and MEZ treatment on proliferation and mda-9 expression in human melanoma cells was determined.

[5] = H0-1 cells grown for 4 days in 10 ng/ml of MEZ

## C=C(C)[C@@]12O[C@@]3(c4ccccc4)O[C@@H]1[C@@H]1[C@@H]4O[C@]4(CO)[C@@H](O)[C@]4(O)C(=O)C(C)=C[C@H]4[C@@]1(O3)[C@H](C)[C@H]2OC(=O)/C=C/C=C/c1ccccc1 [MEZ, mezerein, reference compound]
LO-1
  Cell numbers (average of triplicate plates ± S.D.): 4.7 ± 0.4
  percent of control growth: 28%
HO-1; [5]
  growth reduction: ~74%
HO-1
  Cell numbers (average of triplicate plates ± S.D.): 16.8 ± 1.0
  percent of control growth: 26%
WM239
  Cell numbers (average of triplicate plates ± S.D.): 19.7 ± 1.2
  percent of control growth: 40%
SKMEL-p53 mut
  Cell numbers (average of triplicate plates ± S.D.): 21.5 ± 4.3
  percent of control growth: 60%
SKMEL-p53 wt
  Cell numbers (average of triplicate plates ± S.D.): 3.6 ± 0.7
  percent of control growth: 21%
FM516-SV [1]
  Cell numbers (average of triplicate plates ± S.D.): 12.7 ± 1.8
  percent of control growth: 60%
SH-1
  Cell numbers (average of triplicate plates ± S.D.): 14.1 ± 0.3
  percent of control growth: 57%
MeWo
  Cell numbers (average of triplicate plates ± S.D.): 15.4 ± 1.9
  percent of control growth: 46%
[2]; [5]
  mda-9 expression: unaffected

## IFN-γ: Recombinant human IFN-γ (type II, immune interferon)
[3]; IFN-γ dose-response
  dose giving maximum enhancing effects on mda-9 expression: 10 U/ml
[3]; IFN-γ dose-response (data not shown)
  low dose at which mda-9 expression is elevated: 0.1 U/ml
H0-1; 1 U/ml of IFN-γ
  average cell number ± S.D.: 15.8 ± 0.5
  percent of cell number reduction versus control: 22%
H0-1; 10 U/ml of IFN-γ
  average cell number ± S.D.: 15.4 ± 0.3
  percent of cell number reduction versus control: 24%
H0-1; 100 U/ml of IFN-γ
  average cell number ± S.D.: 11.5 ± 1.3
  percent of cell number reduction versus control: 44%
WM35; 1 U/ml of IFN-γ
  average cell number ± S.D.: 84.8 ± 6.7
  percent of cell number reduction versus control: 2%
WM35; 10 U/ml of IFN-γ
  average cell number ± S.D.: 62.7 ± 4.3
  percent of cell number reduction versus control: 28%
WM35; 100 U/ml of IFN-γ
  average cell number ± S.D.: 28.2 ± 1.7
  percent of cell number reduction versus control: 67%
C8161; 1 U/ml of IFN-γ
  average cell number ± S.D.: 24.4 ± 0.8
  percent of cell number reduction versus control: 30%
C8161; 10 U/ml of IFN-γ
  average cell number ± S.D.: 25.1 ± 0.8
  percent of cell number reduction versus control: 28%
C8161; 100 U/ml of IFN-γ
  average cell number ± S.D.: 22.2 ± 1.4
  percent of cell number reduction versus control: 36%
FM516-SV [4]; 1 U/ml of IFN-γ
  average cell number ± S.D.: 16.8 ± 0.5
  percent of cell number reduction versus control: 19%
FM516-SV [4]; 10 U/ml of IFN-γ
  average cell number ± S.D.: 9.8 ± 0.6
  percent of cell number reduction versus control: 52%
FM516-SV [4]; 100 U/ml of IFN-γ
  average cell number ± S.D.: 5.1 ± 0.3
  percent of cell number reduction versus control: 75%
WM278; 1 U/ml of IFN-γ
  average cell number ± S.D.: 14.9 ± 0.8
  percent of cell number reduction versus control: 33%
WM278; 10 U/ml of IFN-γ
  average cell number ± S.D.: 12.7 ± 1.0
  percent of cell number reduction versus control: 42%
WM278; 100 U/ml of IFN-γ
  average cell number ± S.D.: 12.5 ± 0.6
  percent of cell number reduction versus control: 44%
H0-1 cells
  reduction of H0-1 growth: ~43%
[2]; H0-1, 100 U/ml of recombinant human IFN-γ
  time at which enhanced mda-9 expression is apparent: ≤ 2 h
[2]; H0-1, IFN-γ dose-response
  dose giving maximum enhancing effects on mda-9 expression: 10 U/ml
  low dose at which mda-9 expression is elevated: 0.1 U/ml

B1: IFN-β: Recombinant human IFN-β, with a serine substituted for a cysteine at position 17 of the molecule (protein, UniProt P01574 22-187, looked up, variant C17S)
Interferon beta: MSYNLLGFLQRSSNFQSQKLLWQLNGRLEYCLKDRMNFDIPEEIKQLQQFQKEDAALTIYEMLQNIFAIFRQDSSSTGWNETIVENLLANVYHQINHLKTVLEEKLEKEDFTRGKLMSSLHLKRYYGRILHYLKAKEYSHCAWTIVRVEILRNFYFINRLTGYLRN
LO-1
  Cell numbers (average of triplicate plates ± S.D.): 1.3 ± 0.3
  percent of control growth: (8) %
HO-1
  Cell numbers (average of triplicate plates ± S.D.): 14.0 ± 2.6
  percent of control growth: (22) %
WM239
  Cell numbers (average of triplicate plates ± S.D.): 9.5 ± 0.9
  percent of control growth: (19) %
SKMEL-p53 mut
  Cell numbers (average of triplicate plates ± S.D.): 39.5 ± 7.5
  percent of control growth: (109) %
SKMEL-p53 wt
  Cell numbers (average of triplicate plates ± S.D.): 9.1 ± 0.3
  percent of control growth: (54) %
FM516-SV [1]
  Cell numbers (average of triplicate plates ± S.D.): 7.8 ± 1.0
  percent of control growth: (37) %
SH-1
  Cell numbers (average of triplicate plates ± S.D.): 14.3 ± 1.5
  percent of control growth: (57) %
MeWo
  Cell numbers (average of triplicate plates ± S.D.): 15.6 ± 1.9
  percent of control growth: (46) %
H0-1 cells
  reduction of H0-1 growth: ~70%
